From PubChem BioAssay AID1053121 (Broad Institute, 2014) come the findings set out here.

Activity calls are given as the source filed them.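 Rule for the calls: active = fitted curve reaches 40% activation below the top valid dose in every replicate test, signal rising; inconclusive = replicate tests disagree on the call; inactive = all replicate tests inactive, including opposite-direction effects.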

The test can be described thus: luciferase reporter signal increase in glioma cells, dose response, N-linked glycosylation inhibitor project, D54 ERlucT glioma cells, dry powder, set 6 (AID 1053121). The conditions noted are these: D54 ERlucT glioma cells, NLG luciferase reporter gain-of-signal, 24 h; at 19.5 µM (top of the series). (A reporter such as luciferase makes a cellular process visible.)

Turning to `Cc1cc(C)nc(/N=C(\N)Nc2ccc(OCc3ccccc3)cc2)n1`, the activation (reporter increase) was -50% (inactive).

`COc1ccc2sc(NC(=O)c3cc(S(=O)(=O)N(C)C)ccc3N3CCCC3)nc2c1`: the activation (reporter increase) is 29.4% (inactive).

As to `COc1ccc(-c2nnc(SCc3ccccc3)o2)cc1`, the activation (reporter increase) is -91.2% (inactive).

Turning to `Cc1cc(=O)[nH]c(N/N=C/c2cc(C)n(CC(F)(F)F)c2C)n1`, the activation (reporter increase) was -91.2% (inactive).

Regarding `CN(C)S(=O)(=O)c1ccc(N2CCCC2)c(C(=O)Nc2cccnc2)c1`, the activation (reporter increase) was 48.4% (inactive).

For the compound `CN(C)S(=O)(=O)c1ccc(N2CCCC2)c(C(=O)NC2CCCCC2)c1`, the activation (reporter increase) was -20% (inactive).

For the compound `COc1ccc(CSc2nnc(-c3ccccc3)o2)cc1`, the activation (reporter increase) was -76.5% (inactive).

For `COc1ccc2c(COC(=O)c3cccc(S(=O)(=O)NCC(C)C)c3)cc(=O)oc2c1`, the activation (reporter increase) was 19.5% (inactive).

Turning to `Cc1ccc2cc(CN(CCCN(C)C)C(=O)Nc3ccccc3)c(=O)[nH]c2c1C`, the activation (reporter increase) was -11.1% (inactive).

As to `C/C(=N\NC(=O)c1c([N+](=O)[O-])c(C)nn1C)c1ccc(NC(=O)C2CCCC2)cc1`, the activation (reporter increase) is -76.5% (inactive).

As to `Cc1nc(NC(=O)c2cc(S(=O)(=O)N(C)C)ccc2N2CCCC2)n[nH]1`, the activation (reporter increase) was 14.6% (inactive).

As to `O=C1CCNc2cc3ccccc3cc21`, the activation (reporter increase) was -83.9% (inactive).

`O=C1CCN(Cc2ccccc2)c2cc3ccccc3cc21`: the activation (reporter increase) is 30.6% (inactive).

In the case of `Cc1cnc(NC(=O)c2cc(S(=O)(=O)N(C)c3ccccc3)ccc2N2CCCC2)s1`, the activation (reporter increase) is 10.9% (inactive).

Turning to `COc1ccccc1-c1nnc(SCc2ccccc2)o1`, the activation (reporter increase) is -20.7% (inactive).

On to `CN(C)S(=O)(=O)c1ccc(N2CCCC2)c(C(=O)Nc2ccccc2F)c1`, for which the activation (reporter increase) is -4.62% (inactive).

Turning to `c1ccc(CSc2nnc(-c3ccccc3)o2)cc1`, the activation (reporter increase) is -94.1% (inactive).

As to `CN(C)S(=O)(=O)c1ccc(N2CCCC2)c(C(=O)Nc2ccccc2Cl)c1`, the activation (reporter increase) was 5.18% (inactive).

With `COc1ccccc1NC(=O)c1cc(S(=O)(=O)N(C)C)ccc1N1CCCC1`, the activation (reporter increase) was 30.1% (inactive).

For the compound `CCCNS(=O)(=O)c1cccc(C(=O)OCc2cc(=O)oc3cc(OC)ccc23)c1`, the activation (reporter increase) is -91.2% (inactive).

As for `Brc1ccc(CSc2nnc(-c3ccccc3)o2)cc1`, the activation (reporter increase) was -58.8% (inactive).

As for `Cc1cnc(NC(=O)c2cc(S(=O)(=O)N(C)C)ccc2N2CCNCC2)s1`, the activation (reporter increase) is -10.1% (inactive).
